This note sets out measurements from US7034162B2, “Amorphous form of 3-[2-(dimethylamino) ethyl]-N-methyl-1H-indole-5-methane sulfonamide succinate (sumatriptan succinate)” (Dr. Reddy's Laboratories Limited, priority 2000, dated 2006).

This data set can be described thus: thermal stability of the solid (stated property, no method described). Conditions: solid amorphous form; test conditions not given. Type of data set: physicochemical.

In the case of `CNS(=O)(=O)Cc1ccc2[nH]cc(CCN(C)C)c2c1.O=C(O)CCC(=O)O` [amorphous form of Sumatriptan succinate, 3-[2-(dimethylamino)ethyl]-N-methyl-1H-indole-5-methane sulfonamide succinate], the “thermal stability of the solid” value is on record as “thermally stable”.
